Measured values as given in US11166942B2 (PRAXIS BIOTECH LLC, priority 2018, dated 2021).

System: ATF4
Assay: ATF4 expression inhibition assay (immunoblot, Tg-stressed HEK293T cells)
Assay type: cell-based, human
Conditions: 100 nM Tg, 3 hours, 0.1 nM to 10 μM compound (FIG. 6)
Procedure: HEK293T cells were maintained at 37° C. and 5% CO2 in Dulbecco's Modified Eagle's Media (DMEM) supplemented with 10% fetal bovine serum (FBS), 2 mM L-glutamine, 100 U/ml penicillin, and 100 μg/ml streptomycin. After reaching 80% of confluence, cells were detached and seeded on 6 well plates in complete media, allowed to recover overnight and treated for 3 hours with 100 nM thapsigargin (Tg) in the presence of various concentrations ranging from 0.1 nM to 10 μM. Cells without treatment (Veh) or cells treated with Tg alone were used as controls.
After 3 hours of treatment with Tg and the test compound, cells were lysed with SDS-PAGE lysis buffer. Lysates were transferred to 1.5 ml tubes and sonicated for 3 min, and total protein amounts were quantified using BCA Protein Assay Kit (Pierce). Equal amount of proteins was loaded on SDS-PAGE gels. Proteins were transferred onto […] PVDF membranes (BioRad) and probed with primary antibodies diluted in Tris-buffered saline supplemented with 0.1% Tween 20 and 3% bovine serum albumin.
ATF4 (11815) antibody (Cell Signaling Technologies) and β-actin (Sigma-Aldrich) antibodies were used as primary antibodies. […]

Structure (SMILES): O=C(NN1CCN(C[C@@H](O)COc2ccc(Cl)c(F)c2)CC1)c1ccc2cc(Cl)ccc2n1 [Compound 58, (R)-6-chloro-N-(4-(3-(4-chloro-3-fluorophenoxy)-2-hydroxypropyl)piperazin-1-yl)quinoline-2-carboxamide]
- ATF4 expression under Tg stress (immunoblot): inhibits the expression of ATF4 under Tg treatment in a dose dependent manner
